Molecules are shown by their SMILES.

One data set concerns the target T1, Androgen receptor (Homo sapiens, UniProt P10275).
T1 sequence (P10275 whole entry): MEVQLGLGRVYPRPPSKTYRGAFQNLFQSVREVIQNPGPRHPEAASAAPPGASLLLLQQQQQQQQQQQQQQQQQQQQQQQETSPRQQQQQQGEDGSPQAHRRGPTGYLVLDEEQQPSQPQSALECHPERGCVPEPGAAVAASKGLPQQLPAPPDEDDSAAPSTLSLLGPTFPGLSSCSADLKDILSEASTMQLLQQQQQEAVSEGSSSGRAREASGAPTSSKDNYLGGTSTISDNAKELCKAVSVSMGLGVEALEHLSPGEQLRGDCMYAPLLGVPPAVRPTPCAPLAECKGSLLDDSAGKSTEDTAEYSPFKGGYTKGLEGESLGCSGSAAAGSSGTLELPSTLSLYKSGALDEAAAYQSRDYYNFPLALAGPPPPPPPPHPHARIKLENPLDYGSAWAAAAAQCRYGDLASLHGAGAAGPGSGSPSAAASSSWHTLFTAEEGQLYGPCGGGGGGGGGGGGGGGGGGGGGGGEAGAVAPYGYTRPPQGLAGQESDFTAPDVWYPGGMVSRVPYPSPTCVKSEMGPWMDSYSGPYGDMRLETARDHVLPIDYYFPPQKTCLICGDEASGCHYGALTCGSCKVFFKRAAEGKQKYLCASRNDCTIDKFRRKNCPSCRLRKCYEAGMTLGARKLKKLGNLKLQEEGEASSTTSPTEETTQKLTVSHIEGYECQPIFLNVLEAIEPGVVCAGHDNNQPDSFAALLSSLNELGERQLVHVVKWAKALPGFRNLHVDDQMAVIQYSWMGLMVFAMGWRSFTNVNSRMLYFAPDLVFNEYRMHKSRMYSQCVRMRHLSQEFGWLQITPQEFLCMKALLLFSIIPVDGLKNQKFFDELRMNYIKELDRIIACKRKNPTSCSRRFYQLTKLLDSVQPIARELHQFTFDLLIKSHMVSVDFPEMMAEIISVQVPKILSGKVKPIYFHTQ
Briefly: Antagonist activity at DHT-induced Androgen receptor in human LNCaP cells transfected with ARR2PB-eGFP incubated for 3 days. In kind it is cell-based.

Data set [1] can be described thus: Cmax in Sprague-Dawley rat at 5 mg/kg, po. It counts as ADME, organism-based. The conditions noted are these: in vivo.
A short description of data set [2]: Half life in Sprague-Dawley rat at 1 mg/kg, iv. In kind it is ADME, organism-based. The note with it: in vivo.
The nature of data set [3]: Antiproliferative activity against human Chang liver cells incubated for 72 hrs by MTT assay. In kind it is toxicity, cell-based.
A short description of data set [4]: Oral bioavailability in Sprague-Dawley rat at 5 mg/kg. It counts as ADME, organism-based. The conditions noted are these: in vivo.
Data set [5] can be described thus: Apparent volume of distribution in Sprague-Dawley rat at 1 mg/kg, iv. The conditions noted are these: in vivo, read-out: Vz. It counts as ADME, organism-based.
Data set [6] can be described thus: Clearance in Sprague-Dawley rat at 5 mg/kg, po. It counts as ADME, organism-based. The note with it: in vivo.
Another data set concerns NIH3T3. Briefly: Antiproliferative activity against mouse NIH3T3 cells incubated for 72 hrs by MTT assay. In kind it is toxicity, cell-based. The conditions noted are these: nih3t3, 72 h. On the technique in general: Tetrazolium dyes change colour on reduction, which living cells bring about.
Another data set relates to GES1. Kind of data set: Antiproliferative activity against human GES1 cells incubated for 72 hrs by MTT assay. It counts as toxicity, cell-based. The note with it: ges1, 72 h, time 72 hrs.
A short description of data set [7]: Clearance in Sprague-Dawley rat at 1 mg/kg, iv. It counts as ADME, organism-based. The conditions noted are these: in vivo.
Data set [8] in a line: AUC (0 to t) in Sprague-Dawley rat at 5 mg/kg, po. In kind it is ADME, organism-based. The note with it: in vivo.
Data set [9] is described as follows: AUC (0 to t) in Sprague-Dawley rat at 1 mg/kg, iv. The conditions noted are these: in vivo. In kind it is ADME, organism-based.
The nature of data set [10]: Cmax in Sprague-Dawley rat at 1 mg/kg, iv. It counts as ADME, organism-based. The conditions noted are these: in vivo.
A short description of data set [11]: Apparent volume of distribution in Sprague-Dawley rat at 5 mg/kg, po. In kind it is ADME, organism-based. The conditions noted are these: in vivo.
A short description of data set [12]: Half life in Sprague-Dawley rat at 5 mg/kg, po. In kind it is ADME, organism-based. The note with it: in vivo.

In general, IC50 refers to the point on the concentration scale where inhibition reaches its midpoint. Low values mean higher potency, high ones lower potency. For `O=c1cc(C(F)(F)F)c2cc(N3CCCC3)c(OCc3ccc(Br)cc3)cc2o1`, the IC50 on Androgen receptor is over 10000 nM. `O=c1cc(C(F)(F)F)c2ccc(NCc3cccc(Br)c3)cc2o1` gave an IC50 against Androgen receptor of 110 nM.

By Cmax is commonly meant the peak of the concentration-time curve. As a reminder, the half-life is the time in which the quantity being followed falls by half. A lower half-life goes with rapid decline. As a reminder, the bioavailability is the share of a dose that reaches the circulation, judged against a reference dose that is usually intravenous. As usually defined, the CL/F is clearance divided by bioavailability, as obtained after extravascular dosing. In general, clearance refers to the volume of plasma or blood freed of the substance per unit of time. The low end stands for a low capacity for elimination, the high end for a high capacity for elimination. Usually AUC(0-t) stands for exposure summed from dosing to a finite time, without extrapolation to infinity. Higher therefore signals more exposure. For `CN(Cc1ccc(Cl)cc1)c1ccc2c(C(F)(F)F)cc(=O)oc2c1`, the Cmax in [1] amounted to 139 ng/mL; in data set [10], 809 ng/mL. In addition, the half-life is 19.8 h in data set [2] and 11.8 h in [12]. Also, the Activity result (in data set [3]; in the data set on NIH3T3; with GES1) was “Non-Toxic” each time. For the same compound, the bioavailability in [4] amounted to 19.3%. Further, in data set [5], the Vd turned out to be 27.8 L/kg. In [6], this compound had a CL/F of 68 mL/min/kg. This compound also showed a clearance in [7] of 16.3 mL/min/kg. The AUC(0-t) in data set [8] is 724 ng·h/mL; in data set [9] it was 750 ng·h/mL. Further, the Vz in [11] is 112.33 L/kg. Consider `CCN(CC)c1cc2c(C(F)(F)F)cc(=O)oc2cc1OCc1ccc(Br)cc1`, for which the IC50 against Androgen receptor is over 10000 nM. On to `CN(Cc1ccc(Br)cc1)c1ccc2c(C(F)(F)F)cc(=O)oc2c1`, for which, on Androgen receptor, the IC50 came out at 97 nM. As for `O=c1cc(C(F)(F)F)c2ccc(NCc3ccc(O)cc3)cc2o1`, the IC50 against Androgen receptor is 640 nM. Compound `O=c1cc(C(F)(F)F)c2cc([N+](=O)[O-])c(OCc3ccc(Br)cc3)cc2o1` displayed a half-maximal inhibitory concentration (IC50) on Androgen receptor of over 10000 nM. Compound `CCN(Cc1cc(F)ccc1F)c1ccc2c(C(F)(F)F)cc(=O)oc2c1` had an IC50 on Androgen receptor of 430 nM. At Androgen receptor, `O=c1cc(C(F)(F)F)c2ccc(NCc3ccc(Br)c(F)c3)cc2o1` gave an IC50 of 69 nM.

`O=c1cc(C(F)(F)F)c2ccc(NCc3ccc(Br)cc3)cc2o1` yielded an IC50 on Androgen receptor of 42 nM. As to `O=c1cc(C(F)(F)F)c2cc(N(CC(F)(F)F)CC(F)(F)F)c(OCc3ccc(Br)cc3)cc2o1`, at Androgen receptor, the IC50 is over 10000 nM.

Regarding `O=c1cc(C(F)(F)F)c2ccc(NCc3ccc(CO)cc3)cc2o1`, on Androgen receptor, half-maximal inhibition (IC50) required 92 nM. On Androgen receptor, `CCN(Cc1ccc(Br)cc1)c1ccc2c(C(F)(F)F)cc(=O)oc2c1` came in with an IC50 of 100 nM. Turning to `O=c1cc(C(F)(F)F)c2ccc(NCc3ccc(Cl)cc3)cc2o1`, the Cmax in [1] was found to be 258 ng/mL; in [10] it was 395 ng/mL. Besides, the half-life in [2] is 0.27 h. The same compound had a bioavailability in data set [4] of 13%. Also, the Vd in [5] was 2.3 L/kg. In [7], this compound showed a clearance of 97.7 mL/min/kg. Further, the AUC(0-t) in data set [8] is 103 ng·h/mL; in [9], 158 ng·h/mL. `N#Cc1ccc(CNc2ccc3c(C(F)(F)F)cc(=O)oc3c2)cc1` registered a concentration for half-maximal inhibition (IC50) at Androgen receptor of 890 nM. `O=C(Nc1ccc2c(C(F)(F)F)cc(=O)oc2c1)c1ccc(Br)cc1`: the IC50 at Androgen receptor is over 10000 nM. For the compound `O=c1cc(C(F)(F)F)c2ccc(NCc3ccccc3Br)cc2o1`, at Androgen receptor, the IC50 is 100 nM. In turn, `CCN(Cc1ccc(F)cc1)c1ccc2c(C(F)(F)F)cc(=O)oc2c1` displayed a 50% inhibitory concentration (IC50) against Androgen receptor of 83 nM. In the case of `O=c1cc(C(F)(F)F)c2ccc(NCc3ccc(C(F)(F)F)cc3)cc2o1`, the concentration for half-maximal inhibition (IC50) against Androgen receptor amounted to 110 nM. On to `CCN(Cc1ccc(Cl)cc1)c1ccc2c(C(F)(F)F)cc(=O)oc2c1`, for which, at Androgen receptor, the IC50 amounted to 78 nM.

In turn, `Cc1ccc(CNc2ccc3c(C(F)(F)F)cc(=O)oc3c2)cc1F` gave an IC50 against Androgen receptor of 73 nM. In turn, `CN(Cc1cc(F)ccc1F)c1ccc2c(C(F)(F)F)cc(=O)oc2c1` yielded an IC50 against Androgen receptor of 170 nM. The compound `O=c1cc(C(F)(F)F)c2ccc(NCc3cc(F)ccc3F)cc2o1` returned an IC50 on Androgen receptor of 34 nM. In turn, `O=c1cc(C(F)(F)F)c2ccc(OCc3ccc(Br)cc3)cc2o1` yielded an IC50 against Androgen receptor of 590 nM. `O=c1cc(C(F)(F)F)c2ccc(NCc3ccc(OC(F)F)cc3)cc2o1` displayed an IC50 against Androgen receptor of 68 nM.

Source of the values: ChEMBL document CHEMBL6127118, “Identification of Oral Bioavailable Coumarin Derivatives as Potential AR Antagonists Targeting Prostate Cancer” (J Med Chem, 2024).
